Reference: patent US20090170880A1, “Methods and Means for the Treatment of Cancer” (priority 2007, published 2009)
Where two headings read alike, the source gives them in different places.

Columns and labels:
[1] = Brain penetration study, temozolomide i.v. in wild-type and knockout mice; format: in vivo; details: for AUC(0-t): 50 mg/kg, read-out: AUC0-7 h plasma
Method: Based on previous work by Kim et al (11) we have developed a high-performance liquid chromatographic assay for the determination for quantification of temozolomide in medium used for transwell experiments and in mouse plasma and brain tissue homogenates for in vivo pharmacokinetic studies. Separation/quantification was achieved using a Symmetry® C18 column (150×2.0 mm; ID) together with a mobile phase of 7.5% of methanol in 0.5% acetic acid in water, delivered at a flow rate of 0.2 ml/min and UV detection at 330 nm ((PDA996 photodiode array detector; Waters, Milford, Mass., USA or SF 757 detector; Kratos, Ramsey, N.J., USA). Medium from transwell experiments was 10-fold diluted with 0.2% acetic acid in water and 50 μl was injected directly into the HPLC system. Temozolomide was extracted from the acidified plasma and brain tissue homogenate samples (200 μl) with 1.0 ml ethyl acetate. The dried extracts were subsequently dissolved in 100 μl of 5% methanol in 0.2% acetic acid in water and 50 μl was injected into the HPLC system. External calibration was performed since no internal standard was available. The lower and upper limit of quantitation was 0.020 and 10.0 μg/ml, respectively. Samples above the upper limit of quantification were first diluted with acidified blank human plasma. All samples from in vivo studies were analyzed in duplicate in 2 independent analytical series and repeated once more when the results differed by more than 10%.
The brain penetration study comprised cohorts of animals receiving temozolomide (50 mg/kg) by intravenous injection in the tail vein. Each cohort consisted of at least 40 animals in which at least 6 animals were used per time point (t=15 min, 1, 2, 4 and 7 hours post temozolomide administration). […] The mice were anesthetized with metoxyflurane and blood samples were obtained by cardiac puncture and collected on ice in tubes containing potassium EDTA as anticoagulant. The tubes were placed in melting ice, centrifuged within 60 min (10 min, 5000 g, 4° C.) to separate the plasma fraction, which was transferred into clean vials, mixed with 1 M hydrochloric acid (10+1; v/v) and stored at −20° C. until analysis. Immediately after cardiac puncture the mice were killed by cervical dislocation and the brains were dissected and placed on ice. Within 60 min they were weighed and homogenized in 3 ml of ice-cold 1% of BSA in 0.05 M phosphate buffer adjusted to pH 2 and stored at −20° C. until further analysis.
Plasma and brain AUC0-7h values and standard errors were calculated by the linear trapezoidal rule using standard equations (14). The plasma half-life of temozolomide was calculated by linear regression analysis after log transformation of the concentration data using Microsoft Excel 2003. The brain-to-plasma ratio was calculated for each individual animal. The two-sided unpaired Student's t-test was used for statistical analysis of AUC values. Bonferroni's test for multiple comparisons was calculated using SPSS (v12.0.1; SPSS Inc, Chicago, Ill., USA) for brain and plasma levels and brain-to-plasma ratios determined at 2 h post temozolomide administration with the inhibitors and for analyzing the results of the in vivo efficacy study.

U87 = assay: Antitumor response against U87 tumor; format: in vivo; details: one single dose of 25 mg/kg, results not shown
murine P-gp (Mdr1a) = target: T1, murine P-gp (Mdr1a) (Mus musculus, UniProt P21447); assay: Transwell transport of temozolomide, LLC-Mdr1a cells; format: in vitro ADME; details: 40 μg/ml, LLC-Mdr1a versus LLC-PK1 monolayers
T1 construct: expressed in transfected cells; host or cells: LLC-PK1 (porcine kidney) cells transduced with murine Mdr1a
Method: The parental LLC pig-kidney (PK1) cell line and sublines transduced with murine Mdr1a or human MDR1 (12) and the parental Madine Darby Canine Kidney (MDCK) and murine Bcrp1 or human BCRP transduced sublines (13) were seeded on Transwell microporous polycarbonate membrane filters (3.0 μm pore size, 24 mm diameter; Costar Corning, N.Y., USA) at a density of 1×10^6 cells per well in 2 ml of MEM medium (Invitrogen Corporation, Carlsbad, Calif.) containing 10% v/v fetal calf serum. Cells were incubated at 37° C. in 5% CO2 for three days with one medium replacement after the first day. Two hours before the start of the experiment the medium in both compartments was replaced with 2 ml of OptiMEM medium (InVitrogen Corp.). At the start of the experiment the medium in the apical or basolateral compartment was replaced with 2 ml of freshly prepared OptiMEM medium containing 40 μg/ml of temozolomide. […] Zosuquidar (LY335979, 5 μM) was always added to the medium when doing experiments with MDCK cell lines to inhibit endogenous canine P-gp. Samples of 50 μl were collected every 30 min, for up to 2 h after start of the experiment. Because temozolomide is instable in medium at 37° C., we replaced one ml of the donor compartment by a freshly prepared aliquot every 30 min. […]

[2] = Bcrp1 knockout mice, i.v. 50 mg/kg
[3] = Bcrp, Mdr1ab knockout mice, i.v. 50 mg/kg
[4] = Mdr1ab knockout mice, i.v. 50 mg/kg

T1 sequence (P21447 whole entry): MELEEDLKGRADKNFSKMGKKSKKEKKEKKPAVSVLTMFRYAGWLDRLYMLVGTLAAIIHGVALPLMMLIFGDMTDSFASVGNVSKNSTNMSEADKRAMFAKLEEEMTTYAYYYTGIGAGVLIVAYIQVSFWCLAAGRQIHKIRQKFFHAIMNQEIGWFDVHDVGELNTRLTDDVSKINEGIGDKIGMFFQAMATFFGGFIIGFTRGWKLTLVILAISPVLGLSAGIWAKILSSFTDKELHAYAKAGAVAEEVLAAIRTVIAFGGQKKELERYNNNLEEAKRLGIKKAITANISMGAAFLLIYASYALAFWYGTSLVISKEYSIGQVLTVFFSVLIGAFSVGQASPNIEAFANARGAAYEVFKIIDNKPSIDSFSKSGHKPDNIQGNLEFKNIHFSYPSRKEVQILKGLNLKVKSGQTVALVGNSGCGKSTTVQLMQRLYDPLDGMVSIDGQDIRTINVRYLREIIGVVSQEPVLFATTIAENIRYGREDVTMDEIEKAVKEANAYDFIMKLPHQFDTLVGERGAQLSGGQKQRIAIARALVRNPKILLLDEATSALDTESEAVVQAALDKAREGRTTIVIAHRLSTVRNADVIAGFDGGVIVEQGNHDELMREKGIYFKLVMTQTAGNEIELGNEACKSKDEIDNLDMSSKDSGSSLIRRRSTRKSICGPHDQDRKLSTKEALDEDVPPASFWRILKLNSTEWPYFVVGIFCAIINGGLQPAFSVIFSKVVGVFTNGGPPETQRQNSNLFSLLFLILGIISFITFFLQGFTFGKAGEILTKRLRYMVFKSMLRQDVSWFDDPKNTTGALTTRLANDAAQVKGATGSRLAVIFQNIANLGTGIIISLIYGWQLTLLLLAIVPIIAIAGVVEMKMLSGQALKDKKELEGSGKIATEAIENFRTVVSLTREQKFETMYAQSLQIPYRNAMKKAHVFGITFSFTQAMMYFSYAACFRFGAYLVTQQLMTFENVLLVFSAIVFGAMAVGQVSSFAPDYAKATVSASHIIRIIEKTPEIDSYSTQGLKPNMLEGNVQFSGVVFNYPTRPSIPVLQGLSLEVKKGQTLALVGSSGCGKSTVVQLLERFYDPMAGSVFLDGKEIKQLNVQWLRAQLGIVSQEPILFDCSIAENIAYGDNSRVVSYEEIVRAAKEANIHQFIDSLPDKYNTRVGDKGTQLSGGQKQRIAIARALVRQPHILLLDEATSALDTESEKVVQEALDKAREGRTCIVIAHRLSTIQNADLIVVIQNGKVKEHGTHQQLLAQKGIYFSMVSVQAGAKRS

increase of brain penetration / accumulation relative to wild-type ([1]; Bcrp1/Mdr1ab knockout mice, i.v. 50 mg/kg): 50%
AUC0-7 h, brain [1, 2]: 44.78 ± 1.88^1 μg/g · h
T½plasma [1, 2]: 0.719 ± 0.017^ns h
AUC0-7 h, brain [1, 3]: 56.46 ± 1.17^1,2,3 μg/g · h
T½plasma [1, 3]: 0.705 ± 0.014^ns h
AUC(0-t) ([1]; FVB, mouse, plasma, iv, Bcrp1 knockout mice, i.v. 50 mg/kg): 63000 ± 2140 ng·h/mL
AUC(0-t) ([1]; FVB, mouse, plasma, iv, Bcrp, Mdr1ab knockout mice, i.v. 50 mg/kg): 64500 ± 1290 ng·h/mL
AUC(0-t) ([1]; FVB, mouse, plasma, iv, Mdr1ab knockout mice, i.v. 50 mg/kg): 62200 ± 2050 ng·h/mL
AUC(0-t) ([1]; FVB, mouse, plasma, iv, Wild-type mice, i.v. 50 mg/kg): 65400 ± 2000 ng·h/mL
half-life ([1]; FVB, mouse, plasma, iv, mice, i.v. 50 mg/kg, read-out: plasma half-life, first-order elimination (converted)): 42 min
AUC0-7 h, brain [1, 4]: 44.51 ± 1.56^1 μg/g · h
T½plasma [1, 4]: 0.757 ± 0.021^ns h
AUC0-7 h, brain ([1]; Wild-type mice, i.v. 50 mg/kg): 37.73 ± 1.11 µg·h/g
T½plasma ([1]; Wild-type mice, i.v. 50 mg/kg): 0.689 ± 0.019 h
enhancement of the brain penetration ([1]; absence of both P-gp and Bcrp1 versus wild-type): 1.5 fold
transport of temozolomide by murine P-gp (murine P-gp (Mdr1a); listed as Temozolomide): not readily detected
SMILES: Cn1nnc2c(C(N)=O)ncn2c1=O [temozolomide, 8-carbamoyl-3-methyl-[3H]-imidazo[5,1-d]-1,2,3,5-tetrazin-4-one]
antitumor response (U87): significant antitumor response
transport of temozolomide by murine P-gp (murine P-gp (Mdr1a)): very limited if any evidence for transport
